The record followed here is patent US8278100B2, “Lasonolide compounds as reagents for inducing premature chromosome condensation and methods for treating disorders” (The United States of America, as Represented by the …, priority 2008, dated 2012).

Structures are written as SMILES.

The test system of assay [1] is Burkitt's Lymphoma CA46 cells. Description: PCC induction and PI staining. As to conditions: 1 μM OA, 1 h. Type of assay: cell-based, human. The method, then:
(§1) Burkitt's Lymphoma CA46 cells (500,000) (FIG. 1B) or breast cancer MDA-MB-231 cells (500,000) (FIG. 1A) were treated by 100 nM Lasonolide A (stock solution 100 μM in DMSO) for 1 h. Lymphocytes were treated with 200 nM Lasonolide A for 1 h. Cells were harvested with centrifuging on 2,000 rpm for 5 min at 4° C. Pellets were washed once by PBS and re-suspended in 1 mL PBS. 200 μL cells mixture were added to the chamber for cytospining. Cells were cytospun on 800 rpm for 10 min; slides were fixed in fresh-made 4% paraformaldehyde fixation for 20 min at room temperature, then moved to 70% ethanol for 20 min. Slides were stained with Propidium Iodide (“PI”) (20 μg/mL) and RNase A (100 μg/mL) for 15 min. Slides were washed with PBS for three times and mounted with Vectashield anti-fade mounting media (Vector Laboratories, Inc., Burlingame, Calif.). Images were taken using a Nikon Eclipse TE-300 confocal microscope.

The test system of assay [2] is human lymphocytes. The assay is described as follows: PCC induction and PI staining. Type of assay: cell-based. As to conditions: 1 μM OA, without additional reagents.
Assay [3] concerns tumor cells. The assay is described as follows: Premature chromosome condensation (PCC) induction, cells not specified. It counts as cell-based. As to conditions: co-treatment with Lasonolide A. The method, then:
as §1

On to `C=C1[C@@H](O)[C@@H]2O[C@]3(CC[C@H](/C=C/[C@@H](C)[C@@H]4CC(C)=C[C@@]5(O[C@H](C[C@@](C)(O)C(=O)O)CC[C@H]5O)O4)O3)CC[C@H]2O[C@@H]1[C@@H](O)C[C@H](C)[C@H]1O[C@@]2(CCCCO2)CC[C@H]1C` [OA, Okadaic Acid, reference compound], for which the “cells with premature chromosome condensation (PCC)” value in assay [1] was 31%. Besides, in assay [2], the “lymphocytes going to PCC” value is on record as 1.7%.
For `C[C@@H](CN1CC(=O)NC(=O)C1)N1CC(=O)NC(=O)C1` [ICRF187], in assay [3], the “effect of the added inhibitor on PCC induction by Lasonolide A” value is given as “changed the pattern of PCC”.
Still for that read-out and setting: as for `CC[C@H](CO)Nc1nc(NCc2ccccc2)c2ncn(C(C)C)c2n1` [Roscovitine], the entry is “could not influence the PCC induction”.
Same read-out and setting: the same measure for `C[C@@]1(CO)[C@H](O)CC[C@@]2(C)[C@H]1CC[C@H]1C[C@@H]3C[C@@]12CC[C@]3(O)CO` [aphidicolin]: “had no effect on PCC induction”; for `CN1CC[C@H](c2c(O)cc(O)c3c(=O)cc(-c4ccccc4Cl)oc23)[C@H](O)C1` [Flavorpiridol]: “could not influence the PCC induction”.
